Data reported in patent publication US20080207614A1, “QUINAZOLINE DERIVATIVES FOR THE TREATMENT AND PREVENTION OF DIABETES AND OBESITY” (SK CHEMICALS CO., LTD., priority 2004, published 2008).

Tests used:
[1] = system: C2C12 muscle cells; assay: Analysis of glucose absorption (2-deoxyglucose) in differentiated C2C12 muscle cells; type: cell-based; conditions: test materials 10 μM, times relative to control group
In short: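 Differentiated C2C12 myotubes (6 days in 1% serum) held 3 h in KRB with 5 mM glucose, then given test material at 10 μM. After 30 min, 0.2 μCi 2-deoxyglucose added for 20 min; uptake measured by radioactive counting of NaOH lysates.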

[2] = system: AMPK; assay: Measurement of AMPK activity by Western blot in C2C12 cells; type: cell-based; parameters: key to AMPK activity (degree of phosphorylation of serine-79 and threonine-172): fold increase in threonine-172 phosphorylation; AMPK activity (degree of phosphorylation of serine-79): unit not given here; conditions: 10 μM for 50 minutes; for AMPK activity (degree of phosphorylation of serine-79 and threonine-172): no superscript: Western blot of serine-79 and threonine-172 phosphorylation; for AMPK activity (class: degree of phosphorylation of threonine-172): strong/mild/weak; for AMPK activity (degree of phosphorylation of serine-79): footnote a: Western blot of serine-79 phosphorylation
Description: C2C12 cells were cultured and differentiated in the same manner as in Experimental Example 1. Treatment with the test materials was also performed in the same manner as in Experimental Example 1 (10 μM for 50 minutes). The culture medium was removed and the cells were washed for 2 times with PBS and protein extracts were obtained using a lysis buffer (50 mM tris-HCl, pH 7.4, 1% NP-40, 0.25% sodium deoxycholate, 150 mM NaCl, 1 mM EDTA, 1 mM PMSF, 1 mM sodium o-vanadate, 1 mM NaF, 1 μg/mL apronitin, 1 μg/mL leu-peptin, 1 μg/mL pepstatin). The AMPK activity was determined from Western blot analysis of the degree of phosphorylation of serine-79 […] acetyl CoA carboxylase and the degree of phosphorylation of threonine-172. The amount of ERK (extracellular signal regulated protein kinase) was confirmed by Western blot in order to quantify the proteins.
The result of Western blot analysis is given in Table 3 below, wherein “strong” means that the degree of phosphorylation of threonine-172 increased by 3 times or more, “mild” means that the degree of phosphorylation of threonine-172 increased by 1 to 3 times and “weak” means that the degree of phosphorylation of threonine-172 increased by less than 1 time.

Compound | Glucose absorption [1] | AMPK activity (degree of phosphorylation of serine-79 and threonine-172) [2] | AMPK activity (class: degree of phosphorylation of threonine-172) [2] | AMPK activity (degree of phosphorylation of serine-79) [2]
CC(C)CC(C)Nc1nc(-c2ccccc2)nc2ccccc12 (centres unmarked) [Compound 125, (1,3-Dimethylbutyl)-(2-phenylquinazolino-4-yl)-amine] | 2.8 | 1.8 | strong (“strong” means that the degree of phosphorylation of threonine-172 increased by 3 times or more) | 
COc1ccc(OC)c(CNc2nc(C3CC3)nc3ccccc23)c1 [Compound 391, (2-Cyclopropylquinazolino-4-yl)-(2,5-dimethoxybenzyl)-amine] | 1.2 | 7.1 |  | 
CC(C)c1nc(NCc2ccccc2)c2ccccc2n1 [Compound 175, Benzyl-(2-isopropylquinazolino-4-yl)-amine] | 2.7 | 4.8 | strong (“strong” means that the degree of phosphorylation of threonine-172 increased by 3 times or more) | 
COc1ccccc1CNc1nc(N2CCCC2)nc2ccccc12 [Compound 275, (2-Methoxybenzyl)-(2-pyrrolidino-1-ylquinazolino-4-yl)-amine] | 0.8 | 2.1 |  | 
COc1ccccc1CNc1ncnc2ccccc12 [Compound 404, (2-Methoxybenzyl)-quinazolino-4-ylamine] | 2.1 | 1.9 |  | 
COc1ccc(CNc2nc(N3CCOCC3)nc3ccccc23)cc1 [Compound 285, (4-Methoxybenzyl)-(2-morpholino-4-ylquinazolino-4-yl)-amine] | 0.8 | 1.6 |  | 
COc1ccc(CNc2nc(-c3cccs3)nc3ccccc23)cc1OC [Compound 355, (3,4-Dimethoxybenzyl)-(2-thiopenyl-2-ylquinazolino-4-yl)-amine] | 1.2 | 1.1 |  | 
Clc1ccccc1CCNc1nc(-c2ccccc2)nc2ccccc12 [Compound 151, [2-(2-Chlorophenyl)-ethyl]-(2-phenylquinazolino-4-yl)-amine] | 1.3 | 1.8 | strong (“strong” means that the degree of phosphorylation of threonine-172 increased by 3 times or more) | 
COc1ccc(CNc2nc(C3CC3)nc3ccccc23)cc1 [Compound 384, (2-Cyclopropylquinazolino-4-yl)-(4-methoxybenzyl)-amine] | 1.2 | 2.0 |  | 
COc1ccc(CNc2nc(N3CCCC3)nc3ccccc23)c(OC)c1 [Compound 291, (2,4-Dimethoxybenzyl)-(2-pyrrolidino-1-ylquinazolino-4-yl)-amine] | 0.8 | 1.5 |  | 
Clc1cccc(CNc2nc(-c3ccccc3)nc3ccccc23)c1Cl [Compound 115, (2,3-Dichlorobenzyl)-(2-phenylquinazolino-4-yl)-amine] | 2.3 | 2.3 | strong (“strong” means that the degree of phosphorylation of threonine-172 increased by 3 times or more) | 
c1ccc(-c2nc(NCc3cccnc3)c3ccccc3n2)cc1 [Compound 111, (2-Phenylquinazolino-4-yl)-pyridino-3-ylmethylamine] | 2.4 | 1.8 | strong (“strong” means that the degree of phosphorylation of threonine-172 increased by 3 times or more) | 
CC(C)CCNc1nc(-c2ccccc2)nc2ccccc12 [Compound 130, (3-Methylbutyl)-(2-phenylquinazolino-4-yl)-amine] | 2.2 | 1.8 | strong (“strong” means that the degree of phosphorylation of threonine-172 increased by 3 times or more) | 
COc1ccc(CNc2nc(C3CC3)nc3ccccc23)c(OC)c1 [Compound 390, (2-Cyclopropylquinazolino-4-yl)-(2,4-dimethoxybenzyl)-amine] | 1.1 | 3.8 |  | 
COc1cc(CNc2nc(-c3ccco3)nc3ccccc23)cc(OC)c1 [Compound 343, (3,5-Dimethoxybenzyl)-(2-furano-2-ylquinazolino-4-yl)-amine] | 1.3 | 0.8 |  | 
ClC(Cl)(Cl)c1nc(NCCCCc2ccccc2)c2ccccc2n1 [Compound 6, (4-Phenylbutyl)-(2-trichloromethylquinazolino-4-yl)-amine] | 1.4 |  |  | 4.7^a
COc1ccc(CNc2nc(N3CCN(C)CC3)nc3ccccc23)cc1OC [Compound 302, (3,4-Dimethoxybenzyl)-[2-(4-methylpiperazino-1-yl)-quinazolino-4-yl]-amine] | 0.7 | 1.2 |  | 
COc1ccc(CNc2nc(C)nc3ccccc23)cc1 [Compound 165, (4-Methoxybenzyl)-(2-methylquinazolino-4-yl)-amine] | 2.5 | 5.2 | strong (“strong” means that the degree of phosphorylation of threonine-172 increased by 3 times or more) | 
COc1cc(CNc2nc(N3CCN(C)CC3)nc3ccccc23)cc(OC)c1 [Compound 306, (3,5-Dimethoxybenzyl)-[2-(4-methylpiperazino-1-yl)-quinazolino-4-yl]-amine] | 0.8 | 1.7 |  | 
COc1ccccc1CNc1nc(Cc2ccccc2)nc2ccccc12 [Compound 328, (2-Benzylquinazolino-4-yl)-(2-methoxybenzyl)-amine] | 1.4 | 3.8 |  | 
O=[N+]([O-])c1cccc(CNc2nc(-c3ccccc3)nc3ccccc23)c1 [Compound 116, (3-Nitrobenzyl)-(2-phenylquinazolino-4-yl)-amine] | 2.5 | 2.0 | strong (“strong” means that the degree of phosphorylation of threonine-172 increased by 3 times or more) | 
CCSc1nc(NCc2cccc(OC)c2)c2ccccc2n1 [Compound 24, (2-Ethylsulfanylquinazolino-4-yl)-(3-methoxybenzyl)-amine] | 2.8 |  | strong (“strong” means that the degree of phosphorylation of threonine-172 increased by 3 times or more) | 
Cc1nc(NCc2cccc(F)c2)c2ccccc2n1 [Compound 171, (3-Fluorobenzyl)-(2-methylquinazolino-4-yl)-amine] | 2.2 | 6.6 | strong (“strong” means that the degree of phosphorylation of threonine-172 increased by 3 times or more) | 
Cc1nc(NCc2ccc3c(c2)OCO3)c2ccccc2n1 [Compound 170, Benzo[1,3]dioxol-5-ylmethyl-(2-methylquinazolino-4-yl)-amine] | 2.4 | 8.8 | strong (“strong” means that the degree of phosphorylation of threonine-172 increased by 3 times or more) | 
COc1cccc(CNc2nc(C(C)C)nc3ccccc23)c1OC [Compound 322, (2,3-Dimethoxybenzyl)-(2-isopropylquinazolino-4-yl)-amine] | 1.4 | 1.9 |  | 
ClC(Cl)(Cl)c1nc(NC2CC2)c2ccccc2n1 [Compound 3, Cyclopropyl-(2-trichloromethylquinazolino-4-yl)-amine] | 1.2 |  |  | 3.3^a
CC(C)c1nc(NCc2cccc(C(F)(F)F)c2)c2ccccc2n1 [Compound 178, (2-Isopropylquinazolino-4-yl)-(3-trifluoromethylbenzyl)-amine] | 4.2 | 5.7 | strong (“strong” means that the degree of phosphorylation of threonine-172 increased by 3 times or more) | 
CC(C)(C)c1nc(NCc2ccccc2)c2ccccc2n1 [Compound 187, Benzyl-(2-tert-butylquinazolino-4-yl)-amine] | 2.4 | 0.7 | mild (“mild” means that the degree of phosphorylation of threonine-172 increased by 1 to 3 times) | 
